# Legend:
# [1] = test system: human primary fibroblasts; assay: Combined treatment of stearic acid and nintedanib in human primary fibroblasts; assay type: cell-based
# Procedure: The primary fibroblasts derived from the patients with idiopathic pulmonary fibrosis used in the following experiment were cultured for 7 to 10 days while cutting the lung tissue of the patient into 1×1 mm^2 slices, and then periodically exchanging a cell culture solution (Eagle's minimal essential medium; EMEM) supplemented with 100 unit/ml penicillin, 100 μg/ml streptomycin, and 10% fetal bovine serum (FBS) under conditions of 5% CO2 and 37° C., and cells of passage 2 to 5 were used for the experiment. To verify the anti-fibrotic effect by the combined treatment of stearic acid and nintedanib, which is another therapeutic agent for idiopathic pulmonary fibrosis, human primary fibroblasts were respectively or simultaneously treated with 5 ng/ml TGF-β, 40 μM stearic acid, and 1.5 or 2 μM nintedanib for 24 hours, and then the expression levels of collagen type 1 (COL-1) and α-SMA, which are markers of fibrosis, were measured, respectively.
# [2] = test system: pulmonary fibroblasts; assay: Collagen 1 and α-SMA immunoblotting in pulmonary fibroblasts; assay type: cell-based, human; settings: relative to control
# Procedure: After epithelial cells and fibroblasts were aliquoted into 6-well plates at 2×10^4 cells/well and a stabilization time was imparted for 24 hours, and 15 hours after deficiency, cells were treated with stearic acid (40 uM/mL), TGF-β (5 ng/mL), and stearic acid (40 uM/mL)+TGF-β (5 ng/mL) in this order. After the cells were cultured in an incubator for 24 hours after the treatment, the next-step experiment was performed. After 24 hours of cell stimulation by the method of Example 1-3, the cells were washed twice with iced phosphate buffer saline (PBS), a protein lysate solution was put thereinto, the cells were scraped out and collected in a 1.5 ml EP tube, and then the cells were lysed in a grinder for 30 seconds. Next, centrifugation was performed at a speed of 14,000 rpm at 4° C. for 20 minutes, and the protein was quantified using the BCA analysis method. Thereafter, the protein sample was boiled at 95° C. for 10 minutes for the same amount of protein, and then the expression levels of collagen type 1 and α-SMA were measured by immunoblotting. After the expression level of the protein was confirmed, a significance test between samples was performed using a statistical program. […] The collagen 1/actin or α-SMA/actin indicated on the y-axis of FIGS. 4A and 4B means a value obtained by correcting the protein amount of collagen 1 or α-SMA with the amount of actin, which is an intracellular control protein. […] Further, referring to the test method of obtaining the results in FIG. 4, after pulmonary fibroblasts were treated with palmitic acid at various concentrations (10, 20, and 40 μM/mL), the levels of collagen 1 (collagen 1/actin; FIG. 6A) and α-SMA (α-SMA/actin; FIG. 6B), which are intracellular fibrosis markers, were measured, and shown as relative values to the control (CTL; medium only). […] 40 uM/mL stearic acid, 10 uM/mL palmitic acid, and 5 ng/mL TGF-β were used in the experiment, respectively. […] In addition, referring to the test method of obtaining the results in FIG. 7, the experiment was performed using oleic acid (OA) instead of palmitic acid, and the levels of collagen 1 (collagen 1/actin; FIG. 8A) and α-SMA (α-SMA/actin; FIG. 8B) were measured and shown as relative values to the control (CTL; medium only). 40 uM/mL stearic acid, 40 uM/mL oleic acid, and 5 ng/mL TGF-β were used in the experiment, respectively.
# [3] = test system: human primary fibroblasts; assay: Combined treatment of stearic acid and pirfenidone in human primary fibroblasts (western blotting); assay type: cell-based; settings: TGF-β single treatment group set to 100%; corrected with actin
# Procedure: The primary fibroblasts derived from the patients with idiopathic pulmonary fibrosis used in the following experiment were cultured for 7 to 10 days while cutting the lung tissue of the patient into 1×1 mm^2 slices, and then periodically exchanging a cell culture solution (Eagle's minimal essential medium; EMEM) supplemented with 100 unit/ml penicillin, 100 μg/ml streptomycin, and 10% fetal bovine serum (FBS) under conditions of 5% CO2 and 37° C., and cells of passage 2 to 5 were used for the experiment.
# To verify the anti-fibrotic effect by the combined treatment of stearic acid and pirfenidone, which is a therapeutic agent for idiopathic pulmonary fibrosis, the human primary fibroblasts isolated by the above-described method were respectively or simultaneously treated with 5 ng/ml TGF-β, 40 μM stearic acid, and 400 or 800 μM pirfenidone for 24 hours, and then the expression levels of collagen type 1 (COL-1) and α-SMA, which are markers of fibrosis, were measured by western blotting, and the inhibitory rate was quantitatively analyzed by correcting the amount of each protein with the amount of actin, which is an intracellular control protein.
# [4] = test system: pulmonary fibrosis induced by bleomycin; assay: Combined stearic acid and pirfenidone in bleomycin pulmonary fibrosis animal model; assay type: in vivo, mice (C57BL/6J); settings: 3 mg/kg stearic acid, 300 mg/kg pirfenidone oral once every 2 days for 2 weeks
# Procedure: In addition to the results of the above examples, the present inventors sought to confirm the anti-fibrotic effect by the combined treatment of stearic acid and pirfenidone in a pulmonary fibrosis animal model. For this purpose, 8-week-old mice (C57BL/6J) were anesthetized with 50 mg/kg […] and 5 mg/kg Rompun, followed by injection of bleomycin and saline into the trachea. From 7 days after administration of bleomycin, 3 mg/kg stearic acid, 300 mg/kg pirfenidone or the two drugs were orally administered at the same time once every 2 days for 2 weeks, and changes in mouse body weight were measured up to 21 days after administration of bleomycin.
# [5] = test system: human pulmonary epithelial cell line Beas-2B; assay: Fibronectin (EMT marker) expression under combined treatment in epithelial cells; assay type: cell-based; settings: TGF-β 5 ng/ml; pirfenidone 800 μM, stearic acid 40 μM
# Procedure: FIG. 15 illustrates, as the results of confirming the anti-fibrotic effect according to the combined treatment with stearic acid and pirfenidone in a human pulmonary epithelial cell line BEAS-2B, the results of treating the cells with TGF-β (5 ng/ml), stearic acid (40 μM), and/or pirfenidone (800 μM), and then measuring the expression of fibronectin with a marker of EMT, which is one of the pulmonary fibrosis indices, and quantitatively analyzing the inhibitory efficiency thereof (TGF: TGF-β single treatment group, TGF+PIR: TGF-β and pirfenidone treatment group, TGF+Combi: TGF-β and pirfenidone+stearic acid combined treatment group).
# In addition to the results of Example 3-1-1, the present inventors tried to analyze the degree of epithelial to mesenchymal transition (EMT), which is one of the indices for pulmonary fibrosis, during the combined treatment with stearic acid and pirfenidone by treating a human pulmonary epithelial cell line Beas-2B with 800 μM, and for this purpose, the expression level of fibronectin, which is one of the EMT markers, was measured.
# [6] = test system: human pulmonary fibroblasts (MRC-5); assay: Cell viability (MTT) of human pulmonary fibroblasts; assay type: cell-based; settings: palmitic acid 10, 20 and 40 μM/mL alone
# Procedure: (§1) After epithelial cells and fibroblasts were aliquoted into 6-well plates at 2×10^4 cells/well and a stabilization time was imparted for 24 hours, and 15 hours after deficiency, cells were treated with stearic acid (40 uM/mL), TGF-β (5 ng/mL), and stearic acid (40 uM/mL)+TGF-β (5 ng/mL) in this order. After the cells were cultured in an incubator for 24 hours after the treatment, the next-step experiment was performed.
# (§2) After a 24-hour cell stimulation by the method in Example 1-3 was completed, the medium of epithelial cells and fibroblasts was replaced with a general culture medium, 10 μl of an MTT solution (20 mg/ml) was further added, and then the outside of the plate was wrapped with aluminum foil and cells were cultured in an incubator for 2 hours. […] After 2 hours, cell activation was measured at an absorbance value of 595 nm using an ELISA reader.
# (§3) For this purpose, after each culture (BEGM(Lonza) in the case of MRC-5, and BMEM (ATCC) in the case of BEAS-2B) of human pulmonary fibroblasts (MRC-5; ATCC® CCL171™) and human pulmonary epithelial cells (BEAS-2B; ATCC® CRL9609™) was treated with stearic acid (40 uM/mL), TGF-β (5 ng/mL; Sigma), or stearic acid (40 uM/mL)+TGF-β (5 ng/mL) by the method described in Example 1-3 for 24 hours, cell viability was measured by the method in Example 1-4. […]
# [7] = test system: human pulmonary epithelial cells (BEAS-2B); assay: Cell viability (MTT) of human pulmonary epithelial cells; assay type: cell-based; settings: palmitic acid 10, 20 and 40 μM/mL alone
# Procedure: as §1, §2, §3
# [8] = test system: p-Smad2/3 and Smad7 in MRC-5 cells; assay: p-Smad2/3 and Smad7 expression in fibroblasts; assay type: cell-based, human; settings: 5 mM NAC pre-treatment 1 h, TGF-β1 1 h
# Procedure: The present inventors pre-treated a human pulmonary fibroblast cell line MRC-5 with 40 μM stearic acid for 16 hours, treated the MRC-5 cells with TGF-β1 for 1 hour, and then examined the expression levels of p-Smad2/3 and Smad7 in order to elucidate the anti-fibrotic mechanism of stearic acid in human pulmonary fibroblasts (FIGS. 12A and 12B). Further, to investigate the effect of stearic acid on the production of reactive oxygen species (ROS), MRC-5 cells were pre-treated with 40 μM stearic acid for 16 hours, and cells treated with TGF-β1 for 1 hour were stained with DCF-DA and analyzed by FACS (FIG. 12C). Furthermore, MRC-5 cells were pre-treated with 5 mM N-acetylcysteine (NAC), which is an antioxidant, for 1 hour and treated with TGF-β1 for 1 hour, and then the expression of p-Smad2/3 was examined (FIG. 12D).
# [9] = 1.5 μM nintedanib single treatment versus TGF single treatment
# [10] = 2 μM nintedanib single treatment versus TGF single treatment
# [11] = palmitic acid 10, 20 and 40 μM/mL alone
smiles,measurement,setting,value
COC(=O)c1ccc2c(c1)NC(=O)/C2=C(\Nc1ccc(N(C)C(=O)CN2CCN(C)CC2)cc1)c1ccccc1 [nintedanib],expression level of COL-1,[1]; [9],no change
same,expression level of α-SMA,[1]; [9],no change
same,expression level of COL-1,[1]; [10],no change
same,expression level of α-SMA,[1]; [10],no change
same,inhibition at 2 µM,"[1]; Homo sapiens, Col1, 2 μM nintedanib, 40 μM stearic acid, COL-1 expression caused by TGF assumed 100%, read-out: inhibitory rate against COL-1",110%
"CCCCCCCC/C=C\CCCCCCCC(=O)O [oleic acid, reference compound]",collagen 1/actin,[2]; oleic acid 40 uM/mL alone,activated pulmonary fibrosis at the same level as in TGF-β
same,α-SMA/actin,[2]; oleic acid 40 uM/mL alone,activated pulmonary fibrosis at the same level as in TGF-β
Cc1ccc(=O)n(-c2ccccc2)c1 [pirfenidone],inhibitory rate of COL-1,[3],157%
same,"hydroxyproline inhibition, quantitative analysis",[4],105%
same,level of hydroxyproline,[4]; versus bleomycin group,partially reduced
same,body weight,[4]; up to day 21 after bleomycin,further reduced
same,"expression of fibronectin, quantitative analysis of inhibitory efficiency",[5],about 120%
"CCCCCCCCCCCCCCCC(=O)O [palmitic acid, reference compound]",collagen 1/actin,[2]; [11],increased at levels similar to that in the case where pulmonary fibroblasts were treated with only TGF-β
same,α-SMA/actin,[2]; [11],increased at levels similar to that in the case where pulmonary fibroblasts were treated with only TGF-β
same,cell viability of pulmonary fibroblasts,[6],increased according to the concentration
same,cell viability of pulmonary epithelial cells,[7],decreased according to the treatment concentration
"CC(=O)N[C@@H](CS)C(=O)O [NAC, N-acetylcysteine, reference compound]",expression of p-Smad2/3 induced by TGF-β1,[8],inhibited

# Source: patent publication US20210205253A1, “Use Of Stearic Acid For Preventing Or Treating Pulmonary Fibrosis” (THE ASAN FOUNDATION, priority 2018, published 2021)
